According to patent US11220516B2, “Nitric oxide-releasing antibiotics, methods of making, and methods of use” (University of Georgia Research Foundation, Inc., priority 2019, dated 2022):
Like-named read-outs stand apart in the source and are kept apart here.

Assays:
[1] = test system: 48 h old preformed S. aureus biofilms; test: Biofilm dispersal assay on CarboSil polymer films; format: cell-based, Staphylococcus aureus (ATCC 6538); conditions: for reduction in planktonic bacteria in solution: bacteria shed from 48 h S. aureus biofilm; for inhibition at 500 µM: Staphylococcus aureus, read-out: reduction of viable bacteria adhered on the films (biofilm)
Procedure: Biofilms were grown for 48 h on circular CarboSil polymer films fabricated with a surface area of 1 cm^2. Solutions of S. aureus were prepared by placing one colony of bacteria in Luria Broth and incubated at 37° C. until the solution reached approximately 10^6 to 10^8 CFU mL^−1. Each polymer film was suspended in 2 mL of the bacteria solution and the solution was replenished with a fresh bacteria solution at 24 h of incubation. For the duration of the study the samples were incubated on a shaker at 150 rpms. After 48 h, the films were removed from the bacteria solutions and each film was gently rinsed with 5 ml of sterile PBS to remove any planktonic bacteria. The films were next incubated with 1 mL their specified test solutions and each solution type was tested at n=4. Each test solution was prepared with sterilized PBS and calculated to contain either 500 μM of ampicillin, SNAP, or SNAPicillin. After 24 h, the polymer films were removed from the test solutions, gently rinsed with PBS to remove planktonic bacteria, and homogenized in sterile PBS to remove any viable bacteria from the biofilm. The collected bacteria were serially diluted, plated on LB agar, and incubated for 18 h to achieve countable CFUs for comparison. A similar procedure was then done for the planktonic bacteria suspended in the solution of the incubated films to observe viable bacteria that shed from the potentially dispersed biofilms.
While NO release from SNAP may have difficulties diffusing through agar for disk diffusion testing, it is extremely potent at dispersing biofilms. […] The polymer films were then immersed into solutions containing either ampicillin, SNAP, or SNAPicillin at a concentration of 500 μM and the adhered bacteria remaining on the film as well as the planktonic bacteria within the solutions were observed (FIGS. 7 and 8).

[2] = SNAP leachate from blended CarboSil films in PBS (UV-vis absorbance at 340 nm); format: physicochemical; conditions: equimolar blend in CarboSil films, PBS at 37° C., end of 4 day study
Procedure: Leaching of SNAPicillin and SNAP was done by first blending equimolar amounts of the corresponding chemical (33.33 μmol mL^−1) into solutions of CarboSil dissolved in THF (50 mg mL^−1) and subsequently cast into Teflon molds to dry overnight. The dried films were then weighed and measured before being submerged into PBS. Quantification of SNAP leaching into solution was done by measuring absorbance at 340 nm via UV-vis analysis.
(§1) One issue holding back using the direct administration of NO donors as an effective therapeutic is its short half-life. To address this, a common method for controlling and directing the NO release of a donor in a localized and targeted area is to encapsulate it within a polymer. This strategy is also used for antibiotics and antiseptics as well, as catheters have been fabricated with physically blended drugs to combat and prevent infection.^28-30 One key advantage for modifying the ampicillin with SNAP was its change in solubility. A large majority of antibiotics are not soluble in organic solvents, limiting its ability to evenly disperse within polymer matrices when coated or impregnated within the bulk material. […] The polymer films were measured and weighed before being immersed in PBS at 37° C. and were periodically taken out to examine either SNAP or ampicillin leachates (FIGS. 3A-3B). […]

[3] = NO release from blended CarboSil polymer films over 7 days and NO donor remaining (UV-VIS); format: physicochemical; conditions: for NO donor remaining within the CarboSil polymer films: 168 h
Procedure: (§2) Real time NO release was measured using a Sievers 280i NOA (Nitric Oxide Analyzer). Polymer films containing SNAPicillin or SNAP were immersed in amber reaction vessels containing PBS (pH 7.4) with 100 μM EDTA to chelate any metal ion contaminants within the buffer. Solutions were continuously purged with a nitrogen sweep gas and bubbler to carry the NO from the solution directly to the NOA. In a separate NO releasing study, solutions containing 500 μM of either SNAPicillin or SNAP in PBS with EDTA were also tested under physiological conditions to obtain the stabilized NO release profile to compare passive release kinetics.
A separate NO release study was also done by physically blending equimolar amounts into solutions of CarboSil, and solvent casting a thin polymer film to be analyzed. Since polymer films blended with SNAP are a common strategy to create a surface with controlled, localized NO release, a comparison of NO release was done using SNAPicillin containing polymer films to examine its potential as an alternative novel NO donor. The fabricated films were placed in PBS (pH 7.4) containing 0.01 mM EDTA at 37° C. to observe the real time NO releasing kinetics. […] This is contrary to the pure solutions that were previously placed under physiological conditions, where SNAP was able to have a higher initial release. The difference is most likely is due to the leaching rate of either SNAP or SNAPicillin from a hydrophobic polymer matrix.
The amount of NO donor remaining in the films was also quantified using UV-VIS after this time period to examine the potential release beyond the recorded 7 days. […] As mentioned previously, due to the larger molecular weight of SNAPicillin, it was able to stay within the CarboSil matrix for a longer period of time when compared to SNAP blended films. This further emphasizes the versatility of the SNAPicillin donor as a possible RSNO donor substitute for NO releasing polymers that require sustained or controlled release kinetics with the additional antimicrobial functionality.

[4] = NO release kinetics of 500 μM solutions (Sievers 280i Nitric Oxide Analyzer); format: physicochemical; conditions: 500 μM in PBS (pH 7.4) with EDTA, 37° C., 4 h
Procedure: as §2
The NO release of the synthesized SNAPicillin was compared to pure SNAP by dissolving equimolar (500 μM) amounts of each into separate solutions of PBS (pH 7.4) containing 0.01 mM EDTA and placing them in an amber reaction vial submerged within a water bath at 37° C. while NO release was monitored in real time. Nitrogen gas was used to continuously purge the solution to examine the stabilized, passive release under these conditions. […] Although equimolar amounts of each component were used, the RSNO component on the SNAPicillin appears to be less reactive when compared to pure crystalline SNAP under physiological conditions.

[5] = test system: S. aureus; test: Zone of inhibition assay (agar diffusion) of blended CarboSil films; format: cell-based, Staphylococcus aureus (ATCC 6538); conditions: 8 mm diameter; for ZOI values against S. aureus: overnight at 37° C.
Procedure: Zone of inhibition (ZOI) testing was done on polymer films containing the same composition of either ampicillin, SNAP, or SNAPicillin used in the leachate and NOA studies. A standard agar diffusion protocol was followed and tested against S. aureus. A single colony of bacterium was suspended into LB and incubated at 37° C. for 14 h while being rotated at 150 rpm. The optical density of each bacterial culture was then measured at 600 nm using a UV-Vis spectrophotometer. The observed optical density was adjusted to 1×10^7 colony forming units per mL using a standard calibration curve of each corresponding bacteria. A sterile cotton swab was then used to dip into each culture media and spread onto premade LB-agar petri dishes. The polymer films of either ampicillin, SNAP, SNAPicillin, along with controls (diameter: 8 mm, thickness: 200 μm) were then placed on top of the petri dishes and allowed to incubate overnight at 37° C. The ZOI was then measured and compared the following day to observe the antimicrobial effects of synthesized SNAPicillin molecule within a hydrophobic matrix.
A significant advantage of using targeted antibiotics over NO releasing polymers is seen in its ability to prevent bacteria growth. […] To ensure the SNAP attachment to ampicillin was not interfering with this targeted potency, a zone of inhibition (ZOI) test against S. aureus was done. […] This trend has been seen in the past with NO releasing hydrophobic polymers, where the ZOI is extremely limited beyond the interface of the polymer itself.^32
The characterization of covalent attachment of SNAP was verified through FTIR (Fourier Transform Infrared Spectroscopy) and NMR (Nuclear Magnetic Resonance Spectroscopy) and its NO releasing characteristics were compared to pure, unmodified SNAP. The combination of both NO and ampicillin in one unique compound allows for the dispersal of biofilms while making them more susceptible to the antibiotic moiety. […]

[6] = test system: biofilms; conditions: as low as; cited from earlier work
[7] = Ampicillin leachate from blended CarboSil films in PBS with EDTA (alkaline potassium permanganate oxidation); format: physicochemical; conditions: equimolar blend in CarboSil films, PBS at 37° C., 4 days
Source text: Ampicillin eachate from CarboSil films was done by making polymer solutions with equimolar amounts of SNAPicillin and ampicillin. Ampicillin was first dissolve in a small amount of methanol before being added to CarboSil in THF solutions and then solvent casted into Teflon molds. Films were then weighed and immersed in PBS containing EDTA. Quantification of ampicillin leaching into solution was done via the oxidation reaction with alkaline potassium permanganate following a previously established protocol.^24
as §1, with “solubility.” for “solubility. A large majority of antibiotics are not soluble in organic solvents, limiting its ability to evenly disperse within polymer matrices when coated or impregnated within the bulk material.”

[8] = 500 μM solution in PBS, 24 h treatment
[9] = 500 μM solution in PBS, 24 h treatment, 48 h S. aureus biofilm

Structure (SMILES) | reduction in planktonic bacteria in solution [1, 8] | cumulative leaching from films, SNAP leaching study [2] | cumulative leaching from films, ampicillin study [7] | ZOI values against S. aureus [5] | further results
CC(=O)N[C@H](C(=O)O)C(C)(C)SN=O (racemic) [SNAP, S-nitroso-N-acetylpenicillamine] | 96.2±1.15% | 1.307±0.536 μmol cm-2 |  |  | inhibition at 500 µM [1]: 99.2 ± 0.762%; NO donor remaining within the CarboSil polymer films ([3]; pH 7.4): 0.25±0.17%; stabilized passive NO release rate of solutions [4]: slightly higher rate of NO release than SNAPicillin solutions; zone of inhibition against S. aureus, in words [5]: only killing bacteria directly in contact with the film
[N]=O [NO, nitric oxide] |  |  |  |  | concentration of NO able to trigger the biofilm dispersal mechanism [6]: 450 pM
CC(=O)NC(C(=O)NC(C(=O)NC1C(=O)N2C1SC(C)(C)C2C(=O)O)c1ccccc1)C(C)(C)SN=O (stereo not drawn) [SNAPicillin] | 99.5±0.264% | 0.051±0.10 μmol cm-2 | 0.043±0.003 μmol cm^−2 | 34.0±1.40 mm | reduction of viable bacteria adhered on the films (biofilm) [1, 9]: 99.9±0.18%; NO donor remaining within the CarboSil polymer films [3]: 21.9±1.72%; NO flux from blended films ([3]; equimolar blend in CarboSil films, PBS (pH 7.4) with EDTA, 37° C., 7 days): higher NO fluxes at every time point when compared to SNAP
CC1(C)S[C@@H]2[C@H](NC(=O)[C@H](N)c3ccccc3)C(=O)N2[C@H]1C(=O)O [ampicillin] | 90.0±1.13% |  | 0.087±0.003 μmol cm^−2 | 34.5±1.50 mm | inhibition at 500 µM [1, 9]: 28.9 ± 5.89%
